Laboratory results: US5191073A, “Chromogenic merocyanine enzyme substrates” (priority 1992, dated 1993)

Assays:
[1] = Study of Chromogenic Substrate Properties: absorbance maxima, shift, extinction coefficient (Table D); type: physicochemical; conditions: for λ max Chromogen / λ max Substrate: colour in words where no value; for ε × 10^3 Chromogen / ε × 10^3 Substrate: values are ε × 10^3; for λ max Shift: shift from substrate to chromogen
[2] = Study of Chromogenic Substrate Properties: pKa (Table D); type: physicochemical
[3] = tested on: β-galactosidase; test: Study of Chromogenic Substrate Properties: enzyme turnover, Km and Kcat (Table D); type: biochemical
[4] = tested on: β-galactosidase; test: colour change of reaction mixture or extract on treatment with β-galactosidase; type: biochemical
Protocol: 3-Ethyl-2-(4'-β-D-galactopyranosyloxynaphthyl-1'-vinylene)-benzothiazolium iodide (20)--Approximately equal amounts of 4-(β-D-galactopyranosyloxy) -1-naphthaldehyde (5) and 2-methylbenzothiazole ethiodide (8) (H. Richter & R. L. Dresser, supra) were heated at reflux for about 1 minute in ethanol containing a small amount of piperidine. The initially colorless mixture became red-orange during this time. The presence of (20) in the reaction mixture was determined by mixing a portion of the reaction mixture with an equal amount of dimethylformamide, diluting this with 0.1M phosphate buffer pH=7.0, and then treating the resulting solution with β-galactosidase.
3-Ethyl-2-(6'-β-D-galactopyranosyloxynaphthyl-2'-vinylene)-benzoselenazolium iodide (24)--A mixture of 6-(β-D-galactopyranosyloxy)-2-naphthaldehyde (6) (34 mg, 0.1 mmole), 2-methylbenzoselenazole ethiodide (12) (H. Richter & R. L. Dresser, supra) (35 mg, 0.1 mmole) and 0.5 mL of anhydrous pyridine was heated in a 70° C. oil bath for 20 hours.
1-Ethyl-4-(4'-β-D-galactopyranosyloxynaphthyl-1'-vinylene)-quinoliniumiodide (29)--A mixture of 4-(β-D-galactopyranosyloxy)-naphthaldehyde (5) (34 mg, 0.1 mmole), lepidine ethiodide (28) (H. Richter & R. L. Dresser, supra) (30 mg, 0.1 mmole) and 0.5 mL of anhydrous pyridine was heated in a 70° C. oil bath for 3 hours. Then an additional of 60 mg of lepidine ethiodide (28), was added and the reaction mixture was allowed to react in the 70° C. oil bath for a total of 20 hours.

CC[N+]1=C(C=Cc2ccc(O[C@@H]3O[C@H](CO)[C@H](O)[C@H](O)[C@H]3O)cc2)C(C)(C)c2ccccc21 [Compound 16, 1-Ethyl-2-(4'-β-D-galactopyranosyloxystyryl)-3,3-dimethylindolenium iodide]
λ max Chromogen [1]: 522 | ε × 10^3 Chromogen [1]: 45.0 | λ max Shift [1]: 116 | λ max Substrate [1]: 406 | ε × 10^3 Substrate [1]: 25.3 | pKa [2]: 7.3 | Kcat [3]: 1.43 × 10^3 mole/min per mole active site | Km [3]: 18 µM

CC[N+]1=C(C=Cc2ccc(O[C@@H]3O[C@H](CO)[C@H](O)[C@H](O)[C@H]3O)c3ccccc23)C(C)(C)c2ccccc21 [Compound 17, 1-Ethyl-2-(4'-β-D-galactopyranosyloxynaphthyl-1-vinylene)-3,3-dimethylindolinium iodide]
λ max Chromogen [1]: 580 | ε × 10^3 Chromogen [1]: 82.0 | λ max Shift [1]: 124 | λ max Substrate [1]: 456 | ε × 10^3 Substrate [1]: 28.0 | pKa [2]: 6 | Kcat [3]: 7.8 × 10^3 mole/min per mole active site | Km [3]: 90 µM

CC[N+]1=C(C=Cc2ccc3cc(O[C@@H]4O[C@H](CO)[C@H](O)[C@H](O)[C@H]4O)ccc3c2)C(C)(C)c2ccccc21 [Compound 18, 1-Ethyl-2-(6'-β-D-galactopyranosyloxynaphthyl-2'-vinylene)-3,3-dimethylindolenium iodide]
λ max Chromogen [1]: 530 | λ max Shift [1]: 100 | λ max Substrate [1]: 430 | ε × 10^3 Substrate [1]: 32.2 | pKa [2]: 8.3 | Kcat [3]: 1.3 × 10^4 mole/min per mole active site | Km [3]: 80 µM

CC[n+]1c(C=Cc2ccc(O[C@@H]3O[C@H](CO)[C@H](O)[C@H](O)[C@H]3O)cc2)sc2ccccc21.[Cl-] [Compound 19, 3-Ethyl-2-(4'-β-D-galactopyranosyloxystyryl) benzothiazolium chloride]
λ max Chromogen [1]: 492 | ε × 10^3 Chromogen [1]: 43.0 | λ max Shift [1]: 99 | λ max Substrate [1]: 393 | pKa [2]: 7.6 | Kcat [3]: 3.04 × 10^3 mole/min per mole active site | Km [3]: 17 µM

CC[n+]1c(C=Cc2ccc(O[C@@H]3O[C@H](CO)[C@H](O)[C@H](O)[C@H]3O)c3ccccc23)sc2ccccc21 [Compound 20, 3-Ethyl-2-(4'-β-D-galactopyranosyloxynaphthyl-1'-vinylene)-benzothiazolium iodide]
λ max Chromogen [1]: violet | λ max Substrate [1]: yellow | colour change on addition of β-galactosidase ([4]; dimethylformamide diluted with 0.1M phosphate buffer pH=7.0): turned from yellow in color to violet

CC[n+]1c(C=Cc2ccc(O[C@@H]3O[C@H](CO)[C@H](O)[C@H](O)[C@H]3O)c3ccccc23)sc2cc(OC)ccc21 [Compound 21, 3-Ethyl-2-(4'-β-D-galactopyranosyloxynaphthyl-1'-vinylene)-6-methoxybenzothiazolium iodide]
λ max Chromogen [1]: 598 | ε × 10^3 Chromogen [1]: 80.1 | λ max Shift [1]: 176 | λ max Substrate [1]: 422 | ε × 10^3 Substrate [1]: 10.5 | pKa [2]: 6.6 | Kcat [3]: 2.8 × 10^3 mole/min per mole active site | Km [3]: 430 µM

C[n+]1c(/C=C/c2ccc(O[C@@H]3O[C@H](CO)[C@H](O)[C@H](O)[C@H]3O)c3ccccc23)sc2ccc3ccccc3c21 [Compound 22, 2-(4'-β-D-galactopyranosyloxynaphthyl-1'-vinylene)-3-methyl-β-naphthothiazolium iodide]
λ max Chromogen [1]: 610 | λ max Shift [1]: 140 | λ max Substrate [1]: 470 | pKa [2]: 7

CC[n+]1c(C=Cc2ccc(O[C@@H]3O[C@H](CO)[C@H](O)[C@H](O)[C@H]3O)c3ccccc23)sc2ccc(C)cc21 [Compound 23, 3-Ethyl-2-(4'-β-D-galactopyranosyloxynaphthyl-1'-vinylene)-5-methylbenzothiazolium iodide]
λ max Chromogen [1]: blue | λ max Substrate [1]: yellow

CC[n+]1c(C=Cc2ccc3cc(O[C@@H]4O[C@H](CO)[C@H](O)[C@H](O)[C@H]4O)ccc3c2)[se]c2ccccc21 [Compound 24, 3-Ethyl-2-(6'-β-D-galactopyranosyloxynaphthyl-2'-vinylene)-benzoselenazolium iodide]
λ max Chromogen [1]: purple | λ max Substrate [1]: yellow | colour change on addition of β-galactosidase ([4]; 0.3M bicene buffer (pH 7.9), β-galactosidase and a drop of 1N NaOH): turned to purple immediately

Cc1ccc2oc(C=Cc3ccc(O[C@@H]4O[C@H](CO)[C@H](O)[C@H](O)[C@H]4O)c4ccccc34)[n+](CCC(=O)O)c2c1 [Compound 25, 3-(2"-Carboxyethyl)-2-(4'-β-D-galactopyranosyloxynaphthyl-1'-vinylene)-5-methyl benzoxazolium bromide]
λ max Chromogen [1]: 550 | ε × 10^3 Chromogen [1]: 50.1 | λ max Shift [1]: 130 | λ max Substrate [1]: 420 | ε × 10^3 Substrate [1]: 15.8 | pKa [2]: 6.6 | Kcat [3]: 9.8 × 10^2 mole/min per mole active site | Km [3]: 80 µM

CC[n+]1c(C=Cc2ccc(O[C@@H]3O[C@H](CO)[C@H](O)[C@H](O)[C@H]3O)c3ccccc23)ccc2ccccc21 [Compound 26, 1-Ethyl-2-(4'-β-D-galactopyranosyloxynaphthyl-1'-vinylene)-quinoliniumiodide]
λ max Chromogen [1]: 606 | ε × 10^3 Chromogen [1]: 70.2 | λ max Shift [1]: 172 | λ max Substrate [1]: 434 | ε × 10^3 Substrate [1]: 16.0 | pKa [2]: 6.5

CC[n+]1ccc(C=Cc2ccc(O[C@@H]3O[C@H](CO)[C@H](O)[C@H](O)[C@H]3O)c3ccccc23)c2ccccc21 [Compound 29, 1-Ethyl-4-(4'-β-D-galactopyranosyloxynaphthyl-1'-vinylene)-quinoliniumiodide]
λ max Chromogen [1]: blue | λ max Substrate [1]: yellow | colour change on addition of β-galactosidase ([4]; 50 mM phosphate buffer (pH 7.4)): yellow solution turned to blue color | time to colour change on addition of β-galactosidase ([4]; 50 mM phosphate buffer (pH 7.4), yellow to blue): ≤ 5 s
